Reference: US20210293769A1, “METHOD FOR CULTURING CANCER TISSUE OR TISSUE ANALOGOUS TO CANCER TISSUE” (Chugai Seiyaku Kabushiki Kaisha, priority 2018, published 2021)

What was measured:
Format in all cases: cell-based, human
GPX2 [1] = assay: RNA-seq gene expression analysis of SN-38-treated organoids; settings: organoids day 10 treated with 300 nM SN-38 for three days vs untreated organoids; n=3, FIG. 10
Procedure: (§1) The gene expression of the organoids prepared in Example 1-1 was analyzed by RNA-seq. First, total RNA was prepared from 2D-cultured cells and 3D-cultured organoids (day 10) cultured in Example 1-1 using TRIzol Reagent (Cat #15596018, Thermo Fisher Scientific). The quality of the purified total RNA was verified through RNA integrity number (RIN) measured using an Agilent 2100 Bioanalyzer (Agilent) to confirm that the RIN was greater than 9. Next, cDNAs were synthesized and amplified from 1 ng of total RNA using the SMART-Seq v4 Ultra Low Input RNA Kit for Sequencing (Takara Bio). Subsequently, a library was prepared using the Nextera XT DNA Library Prep kit (Illumina), and sequenced at 75 bp paired-end reads using the NextSeq500 system (Illumina). The obtained sequence information was mapped to NCBI RefSeq transcript sequence using RSEM software (v1.2.31), and the gene expression level was calculated by FPKM (Fragments Per Kilobase of exon model per Million mapped reads).
(§2) Gene expression analysis was performed on the organoids of Example 1-1 (day 10) and the SN-38-treated organoids of Example 2-1 using RNA-seq in the same manner as in Example 1-2 (n=3).

GPX1 [2] = assay: as above; settings: organoids day 10 treated with 300 nM SN-38 for three days vs untreated organoids; n=3, FIG. 10
Procedure: as §1, §2

PLR123 organoids [3] = assay: Pathological (structural) analysis of organoids after SN-38 treatment; settings: after 300 nM SN-38 for three days; new luminal structure formed from surviving cells during re-culture; FIG. 7
Procedure: In order to observe the structure of the organoids produced in Example 1-1 in detail, a pathological analysis was performed according to a previous report (J. Toxicol. Pathol. 31, 81-85 (2018)). Specifically, after removing the culture supernatant from each of the three-dimensional cultures (day 7, day 10, day 12, and day 13), 4% paraformaldehyde/phosphate buffer (Cat #09154-14, Nacalai Tesque) was added, and fixation was carried out at room temperature for 30 minutes. Matrigel was decomposed by pipetting, and organoids were collected in a centrifuge tube and washed. Subsequently, the organoids were suspended in a warmed 2% aqueous agarose solution (agarose, Type IX, Cat #A5030, Merck), centrifuged, and then cooled on ice to gel the agarose. This was treated by the AMeX method and embedded in paraffin. Paraffin blocks were sliced and stained with hematoxylin and eosin (HE) or Alcian blue-Periodic acid-Schiff (AB-PAS) by standard methods. Further, anti-LGR5 antibody (clone 2U2E-2 (Stem Cells, 30, 2631-2644 (2012))) and anti-Ki-67 antibody (clone MIB-1, Cat #M7240, Agilent) were used for immunofluorescent staining of the paraffin block sections. […]
The structure of the regrowing organoids was analyzed by pathological analysis in the same manner as in Example 1-3. […]

LGR5 = assay: FACS measurement of LGR5 expression in organoids; settings: organoids immediately after SN-38 treatment; FIG. 8
Procedure: […] […] […] The resulting cells were reacted with 2 μg/mL anti-LGR5 antibody (clone 2L36 (Stem Cells, 30, 2631-2644 (2012))) or control mouse IgG2a antibody (clone MG2a-53, Cat #401502, BioLegend) at 4° C. for 1 hour, and then reacted with a PE-labeled secondary antibody (Cat #P-21139, Thermo Fisher Scientific) for 30 minutes at 4° C. Then dead cells were stained with 7-AAD Viability Dye (Cat #A07704, Beckman Coulter) and measured with a flow cytometer (BD FACSAria III, BD Biosciences). PBS containing 2% fetal bovine serum and 0.1% NaN3 was used as the buffer. Data were analyzed using BD FACSDiva (version 8.0.1, BD Biosciences) and FlowJo (version 7.6.5, BD Biosciences).

GPX2 [4] = assay: IHC protein expression analysis of organoids; settings: immediately after 300 nM SN-38 treatment; expression continued on day 2 of regrowth; FIG. 11
Procedure: (§3) The protein expression of GPX1 (Uniprot ID: P07203, Refseq accession No. NP_000572) and GPX2 (Uniprot ID: P18283, Refseq accession No. NP_002074) was analyzed by IHC. Using an anti-GPX1 antibody (Cat #ab22604, Abcam, 0.5 ng/mL) and an anti-GPX2 antibody (Cat #ab137431, Abcam, 0.5 ng/mL) with the Envision system (Cat #K4003, Agilent) and peroxidase-diaminobenzidine reaction, the organoids of Example 1-1 (day 10), the SN-38-treated organoids of Example 2-1, and the regrowing organoids of Example 2-1 (day 2, day 6) were each stained. The results of IHC analysis confirmed that the expression of GPX1 and GPX2 increased immediately after the treatment with SN-38 and expression continued even on day 2 of regrowth (FIG. 11).

GPX1 [5] = assay: IHC protein expression analysis of organoids; settings: immediately after 300 nM SN-38 treatment; expression continued on day 2 of regrowth; FIG. 11
Procedure: as §3

PLR123 organoids [6] = assay: Regrowth of SN-38-treated PLR123 organoids on re-culture, CellTiter-Glo 3D Cell Viability Assay; settings: BSO 200 μM and/or AUR 200 nM added upon re-culture of SN-38-treated organoids; n=4, FIG. 13
Procedure: Specifically, 7-ethyl-10-hydroxycamptothecin (SN-38, Cat #H0165, Merck) was added to the organoids (day 10) prepared in Example 1-1 at a concentration of 300 nM and culture was carried out for three days (SN-38 treatment). After culturing, organoids were recovered by decomposing Matrigel with Dispase I (Cat #386-02271, Fujifilm Wako Pure Chemical Corporation), washed with Cellotion (Cat #CB051, Nippon Zenyaku Kogyo Co., Ltd.), and the washed organoids were suspended in a new Matrigel and dispensed at 20 μL/well into a 96-well plate in which 20-30 μL/well of Matrigel was gelled beforehand. By centrifuging immediately after dispensing, the organoids were aligned on a single plane, making it easier to observe under a microscope. After gelling Matrigel at 37° C., 200 μL/well of an organoid culture medium (Example 1-1) was added and re-culture was carried out at 37° C. in a 5% CO2 environment.
In order to confirm the contribution of GPX1 and GPX2 towards the regrowth of organoids, the gamma-glutamylcysteine synthetase inhibitor L-buthionine-sulfoximine (BSO, Cat #B2515, Merck, 200 μM) and the thioredoxin reductase inhibitor auranofin (AUR, Cat #A6733, Merck, 200 nM) were added upon re-culture in the re-culture method of Example 2-1, and cell proliferation was measured by CellTiter-Glo 3D Cell Viability Assay (FIG. 12).

| Compound | expression of GPX2 (RNA-seq) (GPX2 [1]) | expression of GPX1 (RNA-seq) (GPX1 [2]) | organoid structure (PLR123 organoids [3]) | LGR5 expression (FACS) (LGR5) | protein expression of GPX2 (IHC) (GPX2 [4]) | protein expression of GPX1 (IHC) (GPX1 [5]) | organoid regrowth (cell proliferation) (PLR123 organoids [6]) |
| --- | --- | --- | --- | --- | --- | --- | --- |
| CCc1c2c(nc3ccc(O)cc13)-c1cc3c(c(=O)n1C2)COC(=O)[C@]3(O)CC [SN-38, 7-ethyl-10-hydroxycamptothecin] | increased by two-fold or more | increased by two-fold or more | once disrupted | almost no LGR5 expression was observed | increased | increased |  |
| CCCCS(=N)(=O)CCC(N)C(=O)O [BSO, L-buthionine-sulfoximine] |  |  |  |  |  |  | suppressed only when both inhibitors were used in combination |
| CC(=O)OC[C@H]1O[C@@H]([S-])[C@H](OC(C)=O)[C@@H](OC(C)=O)[C@@H]1OC(C)=O.CCP(CC)CC.[Au+] [AUR, auranofin] |  |  |  |  |  |  | suppressed only when both inhibitors were used in combination |
